How the values were obtained:
α-synuclein lesions [1] = target: T1, α-synuclein lesions (Mus musculus, UniProt O55042); test: In vivo two-photon laser scanning fluorescence microscopy of α-synuclein fibril-injected model mouse
T1 construct: from tissue; host or cells: brain of C57BL/6 mice inoculated in the striatum with recombinant murine α-synuclein fibrils (made in E. coli)
Experimental: Note that the α-synuclein aggregate was inoculated into the striatum of the mouse with the following manner. First, hair on the head of 9-week-old C57BL/6 male mouse anesthetized with 1.5% (v/v) isoflurane was removed, and the scalp was disinfected with isodine, followed by application of xylocaine and incision in the scalp to expose the skull. Then, a hole was drilled in the skull at a position of 0.05 mm posterior to the bregma and 2 mm lateral to the midline, and 3 μl of an α-synuclein fiber solution (murine α-synuclein fiber (4 mg/ml) in saline) was injected into a position […] ventral to the brain surface using a glass pipette, and then the scalp was returned and sutured.
A model mouse was anesthetized with 1.5% (v/v) isoflurane 6 weeks after the injection of the α-synuclein fiber solution, and a cranial window was provided according to the Seylaz-Tomita method (Tomita et al. J Cereb Blood Flow Metab 25, 858-67, 2005). The mouse was anesthetized with 1.5% (v/v) isoflurane 2 weeks after the generation of the cranial window, and 50 μl of a solution of DMSO/physiological saline water=1:1 containing 0.05% of C05-05 or PBB3 was administered via the tail vein. The mouse was fixed under a two-photon laser fluorescence microscope 90 minutes after administration of C05-05 or 30 minutes after administration of PBB3, and 100 μl of a saline solution containing 5 mM of Sulforhodamine 101 was administered intraperitoneally, followed by intravital two-photon fluorescence imaging at an excitation wavelength of 900 nm. The detection wavelengths for C05-05 and PBB3 were set at 500 nm to 550 nm, and detection wavelengths for Sulforhodamine 101 were set at 573 nm to 648 nm.

α-synuclein lesions [2] = target: T1, α-synuclein lesions; test: Ex vivo imaging of α-synuclein fibril-injected model mouse brain; assay type: in vivo
Experimental: A model mouse at 6 weeks after the injection of the α-synuclein fiber solution was anesthetized with 1.5% (v/v) isoflurane in a manner similar to that described in “(Preparation of α-synuclein fibril-injected mouse model)” above, and C05-05 (1.66 mg/kg) or BF-227 (1.66 mg/kg) was intraperitoneally administered.
The brains were collected and frozen 90 minutes after the administration of C05-05 (or 120 minutes after the administration of BF-227), and frozen sections with the thickness of 20 μm were prepared in a cryostat (HM560). After mounting the sections using a mounting medium (VECTASHIELD H-1000), images of α-synuclein aggregate-enriched areas on the sections were obtained using a fluorescence microscope (DM4000).
Moreover, the same sections were immersed and fixed overnight in a phosphate buffer solution containing 4% paraformaldehyde. The brain after fixation was washed under running water and then treated with an autoclave for the antigen retrieval. Immunohistochemical staining with an anti-phosphorylated α-synuclein monoclonal antibody (pS129, abcam, ab59264) (1:1000) was carried out, and after mounting the sections using a mounting medium (VECTASHIELD H-1000), images of the same areas were obtained using the fluorescence microscope (DM4000). FIG. 7(a) contains images showing the case where C05-05 was administered, and FIG. 7(b) is images showing the case where BF-227 was administered.

[3] = target: T2, α-synuclein aggregate formed in the brain of the DLB patient (Homo sapiens, UniProt P37840); test: In vitro fluorescence microscope measurement, DLB patient brain sections; assay type: binding; settings: 30 μM compound, 50% ethanol, 30 minutes, room temperature, amygdala sections
T2 construct: Postfixed fresh frozen sections of the amygdala tissue of the DLB patient; from tissue; host or cells: post-mortem human DLB amygdala, frozen sections
From the text: Postmortem human brains were obtained from autopsies carried out with respect to a dementia with Lewy bodies (DLB) and Alzheimer's disease (AD) patients.
A frozen DLB tissue was sliced with a thickness of 20 μm in a cryostat (HM560, Carl Zeiss).
Postfixed fresh frozen sections of the amygdala tissue of the DLB patient and formalin fixed, paraffin embedded sections of a deparaffinized middle frontal gyrus tissue of the AD patient were used. Thirty μM of each of the above compounds and brain sections were incubated in a 50% ethanol solution for 30 minutes at room temperature. The sections were then washed twice, i.e., washed with a 50% ethanol solution for 5 minutes and with ultrapure water for 3 minutes. After mounting the sections using a mounting medium (VECTASHIELD H-1000, Vector Laboratories), images of lesion-enriched areas on the sections were obtained using a fluorescence microscope (DM4000, Leica). Analysis software (Image J) was used to quantify the fluorescence of lesion-enriched and lesion-free (background) areas.

[4] = target: T3, lesion composed of the phosphorylated α-synuclein (Mus musculus, UniProt O55042); test: In vitro fluorescence microscope measurement, α-synuclein fibril-injected mouse brain sections; assay type: binding; settings: 30 μM, 20% ethanol, 30 minutes, room temperature
T3 construct: from tissue; host or cells: brain of C57BL/6 mice inoculated in the striatum with recombinant murine α-synuclein fibrils (made in E. coli)
Experimental: First, murine α-synuclein was expressed in and extracted from E. coli as a recombinant protein, and incubated in vitro to form an insoluble α-synuclein aggregate.
Note that the α-synuclein aggregate was inoculated into the striatum of the mouse with the following manner. First, hair on the head of 9-week-old C57BL/6 male mouse anesthetized with 1.5% (v/v) isoflurane was removed, and the scalp was disinfected with isodine, followed by application of xylocaine and incision in the scalp to expose the skull. […]
The brain of the α-synuclein fibril-injected mouse was extracted, sectioned, and analyzed by fluorescent staining. […] After mounting the sections using a mounting medium (VECTASHIELD H-1000), images of α-synuclein aggregate-enriched areas on the sections were obtained using a fluorescence microscope (DM4000). […] Immunohistochemical staining with an anti-phosphorylated α-synuclein monoclonal antibody (pS129, abcam, ab59264) (1:1000) was carried out, and after mounting the sections using a mounting medium (VECTASHIELD H-1000), images of the same areas were obtained using the fluorescence microscope (DM4000).

[5] = target: T4, A53T mutant human α-synuclein (Homo sapiens, UniProt P37840, A53T); test: Inhibitory effect on α-synuclein aggregation (seeded, sarkosyl-insoluble fraction, CBB staining); assay type: biochemical; settings: 37° C., 1 day
T4 construct: made in house; host or cells: E. coli
Experimental: First, A53T mutant human α-synuclein was expressed in and extracted from E. coli as a recombinant protein, and incubated in vitro to prepare α-synuclein aggregate seeds. To 0.02 μg of the α-synuclein aggregate seeds, C05-05 (in DMSO solution) was added at a final concentration of 20 μM, or 200 μM and stirred. An experiment in which only DMSO was added was conducted as a control experiment. These were suspended with 50 μL of A53T mutant human-synuclein monomer solution at a concentration of 1 mg/ml and then shaken at 37° C. for 1 day. Ten μL of the suspension was mixed with 90 μL of 1% sarkosyl and ultracentrifuged at 100 Krpm for 20 minutes, and a resulting precipitate was subjected to electrophoresis, followed by CBB staining of the gel. Images of the gels were obtained using an imager, and quantification of bands was carried out using analysis software (Image J).

contrast in detecting lesions relative to PBB3 (α-synuclein lesions [1]; intravital two-photon imaging): higher contrast than PBB3
detection of α-synuclein lesions by intravital two-photon fluorescence imaging (α-synuclein lesions [1]; tail vein, 50 μl of 0.05% solution, 90 minutes after C05-05 or 30 minutes after PBB3): bound to individual α-synuclein lesions
entry into the brain after intravenous injection (α-synuclein lesions [1]; tail vein, model mouse): entered the brain of the living body
entry into the brain (ex vivo imaging) (α-synuclein lesions [2]; 1.66 mg/kg, model mouse): entered the brain
detection of α-synuclein lesions by ex vivo imaging (α-synuclein lesions [2]; 1.66 mg/kg, brains collected 90 minutes after C05-05 or 120 minutes after BF-227): bound to individual α-synuclein lesions
contrast in detecting lesions relative to BF-227 (α-synuclein lesions [2]; ex vivo imaging): higher contrast than BF-227
reduction of formation of insoluble α-synuclein aggregate compared with control experiment (DMSO) ([5]; final concentration 20 μM): approximately 20%
reduction of formation of insoluble α-synuclein aggregate compared with control experiment (DMSO) ([5]; final concentration 200 μM): approximately 60%
Compound: CNc1ccc(C#C/C=C/c2nc3ccc(OCC(O)CF)cc3s2)cn1 (stereo not shown) [C05-05, (E)-1-fluoro-3-(2-(4-(6-(methylamino)pyridin-3-yl)but-1-en-3-ynyl)benzo[d]thiazol-6-yloxy)propan-2-ol]
binding to the α-synuclein aggregate formed in the brain of the DLB patient, reactivity relative to PBB3 [3]: reactivity equal to or greater than that of PBB3
binding to phosphorylated α-synuclein lesion (co-staining with pS129 antibody) [4]: binds to the lesion composed of the phosphorylated α-synuclein
